This note sets out measurements from PubChem BioAssay (NCI).

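The compound was tested at five concentrations on cells cultured in 96-well plates, with a 48-hour exposure period. At the TGI there is no net growth.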

Some test systems named below: BT-549 breast; SN12C renal; NCI-H23 lung; MCF7 breast; ACHN renal; KM12 colon; NCI-H226 lung; OVCAR-5 ovarian; A498 renal; NCI/ADR-RES ovarian; HS 578T breast; MDA-MB-231 breast; A549 NSCLC; UACC-257 melanoma; SNB-75 CNS; HL-60(TB) leukemia.
What all share (experiment): inhibition of tumour cell growth, NCI panel, 48 h

On to `CN(C)CCCNc1ncnc2nc[nH]c12`, for which the TGI in the experiment on BT-549 breast, in the experiment on SN12C renal, in the experiment on NCI-H23 lung, in the experiment on MCF7 breast, in the experiment on ACHN renal and in the experiment on KM12 colon was greater than 100 µM in each case. In addition, the TGI in the experiment on NCI-H226 lung, with OVCAR-5 ovarian, in the experiment on A498 renal, in the experiment on NCI/ADR-RES ovarian, with HS 578T breast and in the experiment with MDA-MB-231 breast was greater than 100 µM each time. In the experiment on A549 NSCLC, this compound came in with a TGI greater than 100 µM.
For `Cc1cnc(/N=c2\sc(C)cn2-c2ncc(C)s2)s1`, the TGI in the experiment on BT-549 breast, in the experiment on SN12C renal, in the experiment with UACC-257 melanoma, in the experiment with NCI-H23 lung, with MCF7 breast and in the experiment on SNB-75 CNS was greater than 100 µM each time. In addition, the TGI in the experiment on HL-60(TB) leukemia, in the experiment with ACHN renal, in the experiment on KM12 colon, in the experiment with NCI-H226 lung, in the experiment with OVCAR-5 ovarian and in the experiment on NCI/ADR-RES ovarian was greater than 100 µM in each case. Further, the TGI with HS 578T breast, with MDA-MB-231 breast and in the experiment on A549 NSCLC was greater than 100 µM throughout.
Regarding `O=C1C=CC(=O)c2c(NCC3CC3)ccc(NCC3CC3)c21`, the TGI is greater than 100 µM in the experiment on BT-549 breast; greater than 100 µM in the experiment with SN12C renal; 61.8 µM with UACC-257 melanoma; 89.4 µM with NCI-H23 lung; 48.6 µM with MCF7 breast; 31.8 µM in the experiment with HL-60(TB) leukemia. Further, the TGI in the experiment with ACHN renal, in the experiment with KM12 colon, with OVCAR-5 ovarian, in the experiment on A498 renal, with NCI/ADR-RES ovarian and with HS 578T breast was greater than 100 µM each time. For the same compound, the TGI in the experiment on MDA-MB-231 breast and in the experiment with A549 NSCLC was greater than 100 µM in each case.
As to `O=C(Cn1cc(F)c(=O)[nH]c1=O)C12CC3CC(CC(C3)C1)C2`, the TGI with BT-549 breast, in the experiment on SN12C renal, in the experiment with UACC-257 melanoma, with NCI-H23 lung, in the experiment with MCF7 breast and in the experiment with SNB-75 CNS was greater than 100 µM throughout. Moreover, the TGI with HL-60(TB) leukemia, in the experiment on ACHN renal, with KM12 colon, in the experiment on OVCAR-5 ovarian, in the experiment with A498 renal and with NCI/ADR-RES ovarian was greater than 100 µM throughout. Also, the TGI with HS 578T breast, in the experiment on MDA-MB-231 breast and in the experiment with A549 NSCLC was greater than 100 µM each time.
`COc1cc2nc(-c3cccs3)nc(N3C(c4ccc(O)cc4)=NNC(=O)c4ccccc43)c2cc1OC`: the TGI in the experiment with BT-549 breast is 42.8 µM; with SN12C renal, 50.2 µM; with UACC-257 melanoma it was 84.9 µM; in the experiment with NCI-H23 lung, 78.1 µM; in the experiment on MCF7 breast, greater than 100 µM; in the experiment on SNB-75 CNS it was 64 µM. Also, the TGI was 55 µM with ACHN renal; greater than 100 µM in the experiment on KM12 colon; 41.4 µM with NCI-H226 lung; 84.2 µM in the experiment with OVCAR-5 ovarian; greater than 100 µM with A498 renal; 44.3 µM in the experiment with NCI/ADR-RES ovarian. Moreover, the TGI with HS 578T breast is greater than 100 µM; in the experiment with MDA-MB-231 breast, 42.6 µM; in the experiment with A549 NSCLC, greater than 100 µM.
As for `COC(=O)C1CC=C(SC(=O)c2ccccc2)N1C(=O)c1ccccc1` (stereo unspecified), the TGI with BT-549 breast, in the experiment on UACC-257 melanoma, in the experiment on NCI-H23 lung, in the experiment on MCF7 breast, in the experiment with SNB-75 CNS and in the experiment on ACHN renal was greater than 100 µM each time. Further, the TGI in the experiment on KM12 colon, in the experiment on OVCAR-5 ovarian, in the experiment with A498 renal, in the experiment with NCI/ADR-RES ovarian, with HS 578T breast and in the experiment on MDA-MB-231 breast was greater than 100 µM in each case. For the same compound, the TGI in the experiment on A549 NSCLC is greater than 100 µM.
For `NC1CC(N)c2c(Br)sc(Br)c21` (stereo unspecified), the TGI in the experiment on BT-549 breast, with SN12C renal, in the experiment on UACC-257 melanoma, in the experiment on NCI-H23 lung, in the experiment with MCF7 breast and in the experiment on ACHN renal was greater than 100 µM in each case. In addition, the TGI in the experiment with KM12 colon, with NCI-H226 lung, in the experiment with OVCAR-5 ovarian, in the experiment with A498 renal, with NCI/ADR-RES ovarian and with HS 578T breast was greater than 100 µM each time. Further, the TGI in the experiment on MDA-MB-231 breast and in the experiment with A549 NSCLC was greater than 100 µM throughout.
Take `CCOC(=O)c1sc2nc(SC)nc3c2c1NCN3c1ccc2c(c1)OCCCO2`: the TGI with BT-549 breast, with SN12C renal, in the experiment on UACC-257 melanoma, in the experiment with NCI-H23 lung, with MCF7 breast and in the experiment with HL-60(TB) leukemia was greater than 100 µM each time. The TGI with ACHN renal is greater than 100 µM; in the experiment on KM12 colon, greater than 100 µM; with NCI-H226 lung, greater than 100 µM; in the experiment with OVCAR-5 ovarian, greater than 100 µM; in the experiment with A498 renal it was 45.8 µM; in the experiment on NCI/ADR-RES ovarian, greater than 100 µM. Moreover, the TGI with HS 578T breast is 37 µM; in the experiment with MDA-MB-231 breast, greater than 100 µM; in the experiment on A549 NSCLC it was greater than 100 µM.
As for `COc1ccc(Cc2c(N)[nH]c(=O)n(C)c2=O)cc1`, the TGI in the experiment on BT-549 breast is greater than 100 µM; in the experiment on SN12C renal, greater than 100 µM; in the experiment on UACC-257 melanoma, greater than 100 µM; in the experiment on NCI-H23 lung, greater than 100 µM; with MCF7 breast, 22.2 µM; in the experiment with SNB-75 CNS, greater than 100 µM. Moreover, the TGI with ACHN renal, in the experiment with KM12 colon, in the experiment on NCI-H226 lung, in the experiment with OVCAR-5 ovarian, in the experiment on A498 renal and in the experiment on NCI/ADR-RES ovarian was greater than 100 µM in each case. The TGI in the experiment on HS 578T breast, with MDA-MB-231 breast and in the experiment with A549 NSCLC was greater than 100 µM throughout.
With `O=C1NC(=S)NC(=O)C1C(c1ccc([N+](=O)[O-])cc1)C1C(=O)NC(=S)NC1=O`, the TGI in the experiment on BT-549 breast, in the experiment with SN12C renal, in the experiment on UACC-257 melanoma, with NCI-H23 lung, in the experiment on MCF7 breast and with HL-60(TB) leukemia was greater than 100 µM each time. The TGI in the experiment on ACHN renal, in the experiment with KM12 colon, in the experiment with NCI-H226 lung, in the experiment with OVCAR-5 ovarian, in the experiment with A498 renal and in the experiment on NCI/ADR-RES ovarian was greater than 100 µM throughout. The TGI with HS 578T breast, in the experiment on MDA-MB-231 breast and with A549 NSCLC was greater than 100 µM each time.
As to `COc1cc(C[C@H]2C(=O)OC[C@@H]2Cc2ccc(OC)c(OC)c2)cc(OC)c1`, the TGI with BT-549 breast, in the experiment on SN12C renal, with UACC-257 melanoma, with NCI-H23 lung, in the experiment on MCF7 breast and in the experiment with SNB-75 CNS was greater than 100 µM in each case. Also, the TGI in the experiment with HL-60(TB) leukemia was 77.1 µM; in the experiment with ACHN renal, greater than 100 µM; in the experiment on KM12 colon, greater than 100 µM; in the experiment with NCI-H226 lung it was greater than 100 µM; in the experiment with OVCAR-5 ovarian, greater than 100 µM; with NCI/ADR-RES ovarian, greater than 100 µM. Further, the TGI in the experiment with HS 578T breast, in the experiment with MDA-MB-231 breast and with A549 NSCLC was greater than 100 µM in each case.
Take `c1cc(CSP234N5CCN2CCN3CCN4CC5)ccc1CSP123N4CCN1CCN2CCN3CC4`: the TGI with BT-549 breast, in the experiment with SN12C renal, with UACC-257 melanoma, with NCI-H23 lung, with MCF7 breast and in the experiment on SNB-75 CNS was greater than 100 µM throughout. The TGI is 79.8 µM with HL-60(TB) leukemia; greater than 100 µM in the experiment on ACHN renal; greater than 100 µM in the experiment with KM12 colon; greater than 100 µM with OVCAR-5 ovarian; greater than 100 µM in the experiment with NCI/ADR-RES ovarian; greater than 100 µM in the experiment on HS 578T breast. The TGI with MDA-MB-231 breast and in the experiment with A549 NSCLC was greater than 100 µM in each case.
Consider `COc1ccc(C2C3CCc4ccccc4C3=NN2S(=O)(=O)c2ccc(Cl)cc2)cc1` (stereo unspecified), for which the TGI in the experiment on BT-549 breast is greater than 100 µM; in the experiment with SN12C renal it was greater than 100 µM; with UACC-257 melanoma, greater than 100 µM; with NCI-H23 lung, greater than 100 µM; in the experiment on MCF7 breast, 34.8 µM; in the experiment on HL-60(TB) leukemia it was 74.9 µM. In addition, the TGI in the experiment with ACHN renal is 69.2 µM; in the experiment on KM12 colon, greater than 100 µM; with NCI-H226 lung, greater than 100 µM; in the experiment with OVCAR-5 ovarian it was greater than 100 µM; in the experiment with NCI/ADR-RES ovarian, 21.9 µM; in the experiment with HS 578T breast it was greater than 100 µM. Also, the TGI with MDA-MB-231 breast and in the experiment on A549 NSCLC was greater than 100 µM throughout.
As to `Cc1ccccc1NC(=O)C(=O)CC(=O)c1sc(Nc2ccccc2[N+](=O)[O-])nc1C`, the TGI in the experiment on BT-549 breast is 79 µM; in the experiment on SN12C renal, greater than 100 µM; with UACC-257 melanoma, greater than 100 µM; with NCI-H23 lung it was greater than 100 µM; with MCF7 breast, 70.3 µM; with HL-60(TB) leukemia, greater than 100 µM. The TGI in the experiment on ACHN renal was 48.3 µM; with KM12 colon, greater than 100 µM; in the experiment with NCI-H226 lung, greater than 100 µM; with OVCAR-5 ovarian, greater than 100 µM; in the experiment on NCI/ADR-RES ovarian, greater than 100 µM; in the experiment with HS 578T breast, greater than 100 µM. Further, the TGI with MDA-MB-231 breast was 40.2 µM; in the experiment with A549 NSCLC, greater than 100 µM.
Regarding `COc1cccc(Nc2nc(-c3cccs3)nc3ccc(Br)cc23)c1`, the TGI in the experiment on BT-549 breast is greater than 100 µM; with SN12C renal it was greater than 100 µM; with UACC-257 melanoma it was greater than 100 µM; in the experiment with NCI-H23 lung, greater than 100 µM; in the experiment on MCF7 breast, 63.8 µM; with HL-60(TB) leukemia, greater than 100 µM. For the same compound, the TGI in the experiment on ACHN renal, with KM12 colon, with NCI-H226 lung, in the experiment on OVCAR-5 ovarian, with A498 renal and in the experiment with NCI/ADR-RES ovarian was greater than 100 µM in each case. The TGI with HS 578T breast, with MDA-MB-231 breast and in the experiment with A549 NSCLC was greater than 100 µM throughout.
